We go through 11 compounds from publication PMC7672115 (Scientific Reports, 2020).

Read-outs that look alike come from different tables or passages of the source. Some results are limits rather than exact numbers.

Data set [1] relates to SARS-CoV-2. Briefly: microbe, parasite or virus in culture. The format is cell-based. Particulars: for IC50: read-out: IC50 (plaque reduction assay); for concentration with absolute inhibition of the infectious virion production: post-treatment approach, Vero E6, plaque assay. In general terms: In a plaque reduction assay, fewer plaques than in the control indicate reduced infectivity or spread.

The nature of data set [2]: in vitro. The format is cell-based. Here is the method: (§1) Cells were seeded on 96-well plates at 5 × 10^4 cells/well and treated with various concentrations of the extracts or purified compounds for 48 h. Cell viability was evaluated by an MTT colorimetric assay. In brief, the medium was replaced with MTT [3-(4,5-dimethylthiazol-2-yl)-2,5-diphenyltetrazolium bromide] (Sigma-Aldrich, USA) and incubated for 4 h at 37 °C in a humidified incubator with 5% CO2. The formazan crystal was dissolved with DMSO (Merck, Germany) and measured at a wavelength of 570 nm by EnVision Multilabel Reader (PerkinElmer, USA). Data was normalized versus the solvent control, and then CC50 values were calculated using GraphPad Prism 7.

Data set [3] relates to SARS-CoV-2. Kind of data set: microbe, parasite or virus in culture. Particulars: Severe acute respiratory syndrome coronavirus 2, Vero C1008, 48 h, read-out: IC50 (virus inhibition, high-content imaging/IFA).
Data set [4] concerns SARS-CoV-2. Briefly: microbe, parasite or virus in culture. Particulars: for %Inhibition at 10 µM: purified compounds. In kind it is cell-based.
Data set [5] deals with SARS-CoV-2. Kind of data set: microbe, parasite or virus in culture. In kind it is cell-based.
Data set [6] is described as follows: in vitro. Particulars: human.
For data set [7], the system named is SARS-CoV-2. Kind of data set: microbe, parasite or virus in culture. The format is cell-based. This is another data set of the same source.
In data set [8] the test system is SARS-CoV-2. Particulars: pre-entry, Vero E6.
Data set [9] has as its system SARS-CoV-2. Kind of data set: microbe, parasite or virus in culture. Particulars: Severe acute respiratory syndrome coronavirus 2, Vero C1008, read-out: IC50 (virus inhibition, high-content imaging).
The test system of data set [10] is SARS-CoV-2. Particulars: for SI (CC50/IC50): post-infection, Vero E6.
The subject of data set [11] is SARS-CoV-2. Kind of data set: microbe, parasite or virus in culture. In kind it is cell-based. Particulars: Vero E6.
In data set [12] the test system is HepG2, imHC, HK-2, SH-SY5Y, Caco-2. Briefly: Cell viability assay (MTT) in various human cell types. The format is cell-based. Particulars: 0 - 100 µM, 48 h.
The test system of data set [13] is SARS-CoV-2. Briefly: Plaque reduction assay of viral output, pre-entry treatment, Vero E6 cells. In kind it is cell-based.
The nature of data set [14]: Cell viability assay (MTT) in Calu-3 cells. Particulars: human.
Another data set concerns Vero E6 cells. Briefly: in vitro. In kind it is cell-based. Particulars: Vero E6, post-infection treatment setting, 48 h. Here is the method: as §1
[15] abbreviates: Severe acute respiratory syndrome coronavirus 2, Vero C1008, 48 h.
Where [16] appears, read: Vero E6, post-infection treatment setting, 48 h, read-out: CC50.
Setting [17] is: single dose 10 µM, Vero E6, SARS-CoV-2 25TCID50.
Setting [18] is: Severe acute respiratory syndrome coronavirus 2, Vero C1008, post-infection treatment, Vero E6, 48 h.
Setting [19] is: Vero E6, pre-entry treatment setting, read-out: CC50.
Setting [20] is: Severe acute respiratory syndrome coronavirus 2, Vero C1008, purified compounds, single dose 10 µM, Vero E6, SARS-CoV-2 25TCID50, read-out: %Inhibition at 10 µM.

Broadly, the inhibition is the relative decrease from the control value, in per cent. For the compound `CCCCC[C@H](O)CC(=O)CCc1ccc(O)c(OC)c1` [6-Gingerol], the IC50 in the data set with SARS-CoV-2 [1] (setting [15]) was 1.38 µM; in the data set on SARS-CoV-2 [3] it was above 100 µM. For the same compound, the CC50 at 48 h in “in vitro [2]” (setting [16]) is above 100 µM. The inhibition at 10 µM with SARS-CoV-2 [4] (Severe acute respiratory syndrome coronavirus 2, Vero C1008, read-out: %Inhibition at 10 µM) amounted to 7.78%. For the same compound, in the data set with SARS-CoV-2 [4] (extract at 10 µg/mL, compound at 10 µM), the “inhibitory activity against SARS-CoV-2 infection (in words)” value is on record as “mild effect”.
Usually %Inhibition stands for the drop in the measured response relative to a control, in per cent. Low values mean a response near the control, high ones a response far below the control. On to `CCCCCCC[C@H](O)CC(=O)CCc1ccc(O)c(OC)c1` [ECDD-DPM-N95, 8-Gingerol], for which, in the data set on SARS-CoV-2 [4] (setting [17]), the “%Inhibition at 10 µM” value came to 17.59%.
Regarding `CCC(CC)COC(=O)[C@H](C)N[P@](=O)(OC[C@H]1O[C@@](C#N)(c2ccc3c(N)ncnn23)[C@H](O)[C@@H]1O)Oc1ccccc1` [Remdesivir, reference compound], the IC50 with SARS-CoV-2 [5] (Severe acute respiratory syndrome coronavirus 2, Calu-3, read-out: IC50 (virus inhibition, high-content imaging/IFA)) came out at 0.043 µM; with SARS-CoV-2 [1] (setting [15]), 2.65 µM; in the data set on SARS-CoV-2 [3] it was 2.71 µM; in the data set on SARS-CoV-2 [7] (Severe acute respiratory syndrome coronavirus 2, Calu-3, read-out: IC50 (plaque assay)), 0.086 µM. The CC50 in “in vitro [6]” was found to be 16 µM.
Consider `CCCCCCCCC/C=C/C(=O)CCc1ccc(O)c(OC)c1` [MUC1775, 10-Shogaol], for which the “%Inhibition at 10 µM” value in the data set on SARS-CoV-2 [4] (setting [17]) stood at 5.7%.
On the same count and under the same terms, then `CCCCC/C=C/C(=O)CCc1ccc(O)c(OC)c1` [ECDD-DPM-N97, 6-Shogaol], with 12.17%.
On the same count and under the same terms, then `COc1c(O)cc2oc3cc(O)c(CC=C(C)C)c(O)c3c(=O)c2c1CC=C(C)C` [ECDD-NAM, alpha-mangostin], with 9.08%.
Consider `CCN(CCO)CCCC(C)Nc1ccnc2cc(Cl)ccc12` (stereo not shown) [Hydroxychloroquine, reference compound], for which the IC50 in the data set with SARS-CoV-2 [1] (setting [18]) was 0.282 µM; with SARS-CoV-2 [3] it was 5.08 µM; in the data set with SARS-CoV-2 [9] it was 8.07 µM; in the data set on SARS-CoV-2 [11] (Severe acute respiratory syndrome coronavirus 2, Vero C1008, pre-infection phase, read-out: IC50 (virus inhibition, high-content imaging)) it was 20.6 µM. Moreover, the CC50 at 48 h in “in vitro [2]” (African green monkey, Vero E6, post-infection treatment setting, 48 h, read-out: CC50) was above 100 µM; in “in vitro [2]” (African green monkey, Vero E6, pre-infection phase setting, read-out: CC50), above 100 µM; in “in vitro [2]” (setting [19]), above 100 µM. Also, the “SI (CC50/IC50)” value is given as above 12.39 in the data set with SARS-CoV-2 [8] and above 19.68 in the data set with SARS-CoV-2 [10].
For `CCCCCCCCC[C@H](O)CC(=O)CCc1ccc(O)c(OC)c1` [ECDD-DPM-N96, 10-Gingerol], the “%Inhibition at 10 µM” value in the data set with SARS-CoV-2 [4] (setting [17]) is recorded as 23.51%.
Regarding `COc1cc(O)c(C(=O)[C@@H]2[C@H](CC=C(C)C)C(C)=CC[C@H]2c2ccccc2)c(O)c1` [Panduratin A], the IC50 is 2.04 µM with SARS-CoV-2 [5] (Severe acute respiratory syndrome coronavirus 2, post-treatment, Calu-3, read-out: IC50 (virus inhibition, high-content imaging/IFA)); 0.078 µM with SARS-CoV-2 [1] (setting [18]); 0.81 µM in the data set on SARS-CoV-2 [3]; 5.3 µM in the data set with SARS-CoV-2 [9]; 7.62 µM with SARS-CoV-2 [13] (Severe acute respiratory syndrome coronavirus 2, Vero C1008, Vero E6); 0.53 µM in the data set with SARS-CoV-2 [7] (Severe acute respiratory syndrome coronavirus 2, post-treatment, Calu-3, read-out: IC50 (plaque assay)). Further, the “concentration with absolute inhibition of the infectious virion production” value with SARS-CoV-2 [1] was 5 µM. For the same compound, the CC50 at 48 h worked out at 14.7 µM in “in vitro [2]” (setting [16]), 43.5 µM in “in vitro [2]” (setting [19]) and 43.9 µM in data set [14]. For the same compound, the results for the “SI (CC50/IC50)” value with SARS-CoV-2 [8] and in the data set with SARS-CoV-2 [10] were 8.20 and 18.16, respectively. Further, in [12], the “cytotoxicity at the therapeutic window (in words)” value is on record as “no or minimal cytotoxicity”. Moreover, the “dose with absolute suppression of the infectious virion production” value with SARS-CoV-2 [13] (Vero E6, plaque assay) stood at 50 µM. In the data set with SARS-CoV-2 [11] (cells treated with extract/compound before viral adsorption), the “antiviral effect (in words)” value is on record as “did not exerted a dramatic antiviral effect”. In the data set with SARS-CoV-2 [4] (setting [20]), the inhibition at 10 µM was found to be 99.9%. The “%Inhibition at 10 µM” value in the data set on SARS-CoV-2 [4] (single dose 10 µM, Vero E6, SARS-CoV-2 25TCID50, listed as ECDD-NPA) came out at 99.97%.
As for `C=C1CC[C@@H]2[C@](C)(CO)[C@H](O)CC[C@@]2(C)[C@@H]1C/C=C1/C(=O)OC[C@H]1O` [Andrographolide], the IC50 came out at 0.28 µM with SARS-CoV-2 [1] (setting [18]) and 6.58 µM with SARS-CoV-2 [3]. In addition, the “concentration with absolute inhibition of the infectious virion production” value with SARS-CoV-2 [1] was found to be 12.5 µM. Also, the CC50 at 48 h in “in vitro [2]” (African green monkey, CC50) worked out at 27.8 µM. In the data set on SARS-CoV-2 [4] (setting [20]), the inhibition at 10 µM came to 99.9%. In addition, in the data set on SARS-CoV-2 [4] (single dose 10 µM, Vero E6, SARS-CoV-2 25TCID50, listed as ECDD-NAD), the “%Inhibition at 10 µM” value is recorded as 99.97%.
Consider Ivermectin [reference compound], for which, in the data set on Vero E6 cells, the CC50 turned out to be 31.7 µM. Also, in the data set on SARS-CoV-2 [10] (read-out: IC50 (virus inhibition, high-content imaging/IFA), post-infection treatment, Vero E6, 48 h), the IC50 worked out at 12.7 µM.
